We go through nine compounds from PubChem BioAssay (NCI).

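Briefly, cells in 96-well plates were exposed to five compound concentrations for 48 h, and endpoints were estimated by linear interpolation. Abbreviation: GI50, concentration required for 50% inhibition of growth. At the TGI there is no net growth.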 Bounds are passed on as bounds.

Some test systems named below: LOX IMVI melanoma; HCT-15 colon; A549 NSCLC; SK-OV-3 ovarian; SNB-19 CNS; HOP-62 NSCLC; SN12C renal; SK-MEL-28 melanoma; SR leukemia; KM12 colon.
Experiment in all cases: NCI anticancer screen, dose series, 48 h

Consider `Cc1cc(-c2nnc(/C=C/c3ccc4c(c3)OCO4)o2)n[nH]1`, for which the GI50 with LOX IMVI melanoma was 15.9 µM; with HCT-15 colon it was 11.4 µM; with A549 NSCLC, 21.4 µM; in the assay with SK-OV-3 ovarian, 21.1 µM; in the assay on SNB-19 CNS it was 32.6 µM; in the assay with HOP-62 NSCLC, 17.5 µM. For the same compound, the GI50 with SN12C renal was 30 µM; in the assay with SK-MEL-28 melanoma, 24.1 µM; in the assay on SR leukemia, 2.39 µM; in the assay with KM12 colon, 2.15 µM. The TGI in the assay with LOX IMVI melanoma, in the assay on HCT-15 colon, in the assay with A549 NSCLC, in the assay with SK-OV-3 ovarian, with SNB-19 CNS and in the assay with HOP-62 NSCLC was more than 50 µM throughout. For the same compound, the TGI in the assay with SN12C renal was more than 50 µM; in the assay on SK-MEL-28 melanoma, more than 50 µM; with SR leukemia, 48.3 µM; in the assay on KM12 colon, more than 50 µM.
On to `COc1cc(Cl)cc(-c2nn(-c3cccc(NC(=O)Nc4cccc(C(F)(F)F)c4)c3)cc2-c2ccncc2)c1`, for which the GI50 was 1.81 µM in the assay with LOX IMVI melanoma; 1.34 µM in the assay on HCT-15 colon; 0.726 µM in the assay with A549 NSCLC; 3.61 µM in the assay on SK-OV-3 ovarian; 2.77 µM with SNB-19 CNS; 2.81 µM in the assay on HOP-62 NSCLC. For the same compound, the GI50 is 2.06 µM in the assay on SN12C renal, 2.53 µM with SK-MEL-28 melanoma, 1.14 µM in the assay with SR leukemia and 0.611 µM in the assay with KM12 colon. The TGI with LOX IMVI melanoma was found to be 7.04 µM; in the assay on HCT-15 colon, 10.6 µM; in the assay with A549 NSCLC, 7.42 µM; in the assay on SK-OV-3 ovarian, 58.4 µM; in the assay on SNB-19 CNS, 35.9 µM; in the assay with HOP-62 NSCLC it was 13.1 µM. For the same compound, the TGI in the assay with SN12C renal was determined as 18.5 µM; in the assay on SK-MEL-28 melanoma, 12.1 µM; with SR leukemia, 4.39 µM; in the assay with KM12 colon, 4.79 µM.
Take `CNCC/C=C1\c2cc3c(cc2-c2c1c1cc(OC)c(OC)cc1c(=O)n2C)OCO3`: the GI50 was 0.51 µM with LOX IMVI melanoma; 0.585 µM with HCT-15 colon; 1.85 µM in the assay with A549 NSCLC; 3.28 µM in the assay on SK-OV-3 ovarian; 1.08 µM in the assay with SNB-19 CNS; 0.596 µM in the assay with HOP-62 NSCLC. Besides, the GI50 with SN12C renal was 0.207 µM; in the assay with SK-MEL-28 melanoma, 11.8 µM; in the assay with SR leukemia it was less than 0.01 µM; with KM12 colon, less than 0.0507 µM. Moreover, the TGI in the assay with LOX IMVI melanoma was 2.57 µM; with HCT-15 colon it was 13 µM; in the assay on A549 NSCLC, 18.8 µM; in the assay on SK-OV-3 ovarian it was 23.6 µM; in the assay on SNB-19 CNS, 23.1 µM; in the assay on HOP-62 NSCLC, 21.9 µM. The TGI with SN12C renal is 6.06 µM; in the assay with SK-MEL-28 melanoma, more than 69.4 µM; in the assay with KM12 colon it was 0.504 µM.
In the case of `O=C1/C(=C/c2ccc3c(c2)OCCO3)CCC/C1=C\c1ccc2c(c1)OCCO2`, the TGI was more than 100 µM in the assay on LOX IMVI melanoma; more than 100 µM in the assay with HCT-15 colon; more than 100 µM in the assay with A549 NSCLC; more than 100 µM in the assay on SK-OV-3 ovarian; more than 100 µM in the assay on SNB-19 CNS; 92.1 µM with HOP-62 NSCLC. For the same compound, the TGI with SN12C renal worked out at 54.9 µM; in the assay with SK-MEL-28 melanoma, 77.2 µM; in the assay with SR leukemia, 85.8 µM; in the assay on KM12 colon it was 62.1 µM.
On to `CCCCCCCCCC[C@@H](O)[C@@H]1CC[C@@H]([C@@H]2CC[C@@H]([C@@H](O)CCCCCCCCCC[C@H](O)CC3=CC(C)OC3=O)O2)O1` (some centres undefined), for which the GI50 is 4.26 µM in the assay on LOX IMVI melanoma; 4.23 µM with HCT-15 colon; 3.05 µM in the assay with A549 NSCLC; 4.27 µM with HOP-62 NSCLC; 16 µM in the assay with SN12C renal; 5.25 µM in the assay with SK-MEL-28 melanoma. For the same compound, in the assay with KM12 colon, the GI50 was more than 100 µM. The TGI was more than 100 µM with HCT-15 colon; 38.5 µM with A549 NSCLC; 21.9 µM with SK-OV-3 ovarian; 24.6 µM in the assay on SNB-19 CNS; 15.4 µM in the assay on HOP-62 NSCLC; more than 100 µM in the assay with SN12C renal. The TGI was more than 28.8 µM with SK-MEL-28 melanoma and 6.32 µM in the assay with SR leukemia.
As to `C1OC1CN1CCN(CC2CO2)CC1` (centres undefined), the TGI was more than 100 µM with LOX IMVI melanoma; more than 100 µM in the assay with HCT-15 colon; more than 100 µM in the assay with A549 NSCLC; more than 100 µM in the assay with SK-OV-3 ovarian; more than 100 µM with SNB-19 CNS; 69.7 µM with HOP-62 NSCLC. Besides, the TGI in the assay on SN12C renal was more than 100 µM; with SK-MEL-28 melanoma, more than 100 µM; with SR leukemia it was 23.3 µM; with KM12 colon, more than 100 µM.
Turning to `O=C1CC[C@H](N2Cc3c(OCc4ccc(CN5CCOCC5)cc4)cccc3C2=O)C(=O)N1`, the GI50 with LOX IMVI melanoma, in the assay with HCT-15 colon, in the assay on A549 NSCLC, with SK-OV-3 ovarian, with SNB-19 CNS and in the assay on HOP-62 NSCLC was more than 100 µM each time. The GI50 with SN12C renal was more than 100 µM; in the assay with SK-MEL-28 melanoma it was more than 100 µM; in the assay on SR leukemia, 4.83 µM; in the assay on KM12 colon it was more than 100 µM. Further, the TGI with LOX IMVI melanoma, in the assay on HCT-15 colon, in the assay on A549 NSCLC, with SK-OV-3 ovarian, in the assay with SNB-19 CNS and with HOP-62 NSCLC was more than 100 µM each time. Also, the TGI in the assay on SN12C renal, in the assay on SK-MEL-28 melanoma, in the assay with SR leukemia and in the assay with KM12 colon was more than 100 µM in each case.
On to `O=C(O)[C@@H]1OCCOCCO[C@@H](C(=O)O)[C@H](C(=O)O)OCCOCCO[C@H]1C(=O)O`, for which the TGI in the assay with LOX IMVI melanoma, in the assay with HCT-15 colon, in the assay with A549 NSCLC, in the assay on SK-OV-3 ovarian, in the assay on SNB-19 CNS and in the assay with HOP-62 NSCLC was more than 100 µM each time. The TGI in the assay with SN12C renal was more than 100 µM; in the assay on SK-MEL-28 melanoma it was more than 100 µM; in the assay on SR leukemia, 40 µM; in the assay on KM12 colon, more than 100 µM.
`N#Cc1c(-c2ccccc2)cc(-c2ccc(N)cc2)[nH]c1=O`: the TGI in the assay with LOX IMVI melanoma, with HCT-15 colon, with A549 NSCLC, in the assay with SK-OV-3 ovarian, in the assay on SNB-19 CNS and in the assay on HOP-62 NSCLC was more than 100 µM each time. The TGI with SN12C renal, in the assay on SK-MEL-28 melanoma, in the assay with SR leukemia and with KM12 colon was more than 100 µM throughout.
